Columns and labels:
Assay in all cases: mobility shift assay
Assay type in all cases: biochemical
[1] = target: T1, DYRK3 (Homo sapiens, UniProt O43781)
T1 construct: purchased Carna Biosciences

[2] = target: T2, PASK (Homo sapiens, UniProt Q96RG2)
T2 construct: purchased Carna Biosciences

[3] = target: T3, NEK1 (Homo sapiens, UniProt Q96PY6)
T3 construct: purchased Carna Biosciences

[4] = target: T4, TSSK3 (Homo sapiens, UniProt Q96PN8)
T4 construct: purchased Carna Biosciences

[5] = target: T5, EPHA3 (Homo sapiens, UniProt P29320)
T5 construct: purchased Carna Biosciences

[6] = target: T6, KDR (Homo sapiens, UniProt P35968)
T6 construct: purchased Carna Biosciences

[7] = target: T7, MST 1 (Homo sapiens, UniProt Q13043)
T7 construct: purchased Carna Biosciences

[8] = target: T8, CDK9/CvcT1 (Homo sapiens, UniProt P50750)
T8 construct: purchased Carna Biosciences

[9] = target: T9, TEC (Homo sapiens, UniProt P42680)
T9 construct: purchased Carna Biosciences

[10] = target: T10, TSSK2 (Homo sapiens, UniProt Q96PF2)
T10 construct: purchased Carna Biosciences

[11] = target: T11, AurA/TPX2 (Homo sapiens, UniProt O14965)
T11 construct: purchased Carna Biosciences

[12] = target: T12, ABL (Homo sapiens, UniProt P00519)
T12 construct: purchased Carna Biosciences

[13] = target: T13, MARK3 (Homo sapiens, UniProt P27448)
T13 construct: purchased Carna Biosciences

[14] = target: T14, PKCl (Homo sapiens, UniProt P41743)
T14 construct: purchased Carna Biosciences

[15] = target: T15, PKCη (Homo sapiens, UniProt P24723)
T15 construct: purchased Carna Biosciences

[16] = target: T16, PDK1 (Homo sapiens, UniProt O15530)
T16 construct: purchased Carna Biosciences

[17] = target: T17, CaMK1δ (Homo sapiens, UniProt Q8IU85)
T17 construct: purchased Carna Biosciences

[18] = target: T18, BRAF_Cascade (Homo sapiens, UniProt P15056)
T18 construct: purchased Carna Biosciences

[19] = target: T19, JNK1 (Homo sapiens, UniProt P45983)
T19 construct: purchased Carna Biosciences

[20] = target: T20, BMX (Homo sapiens, UniProt P51813)
T20 construct: purchased Carna Biosciences

[21] = target: T21, Nuak2 (Homo sapiens, UniProt Q9H093)
T21 construct: purchased Carna Biosciences

[22] = target: T22, DCAMKL2 (Homo sapiens, UniProt Q8N568)
T22 construct: purchased Carna Biosciences

[23] = target: T23, FLT3 (Homo sapiens, UniProt P36888)
T23 construct: purchased Carna Biosciences

[24] = target: T24, PGK (Homo sapiens, UniProt Q13976)
T24 construct: purchased Carna Biosciences

[25] = target: T25, MAP3K2_Cascade (Homo sapiens, UniProt Q9Y2U5)
T25 construct: purchased Carna Biosciences

[26] = target: T26, TRKA (Homo sapiens, UniProt P04629)
T26 construct: purchased Carna Biosciences

[27] = target: T27, NuaK1 (Homo sapiens, UniProt O60285)
T27 construct: purchased Carna Biosciences

[28] = target: T28, KIT(D816V) (Homo sapiens, UniProt P10721, D816V)
T28 construct: purchased Carna Biosciences

[29] = target: T29, MSK1 (Homo sapiens, UniProt O75582)
T29 construct: purchased Carna Biosciences

[30] = target: T30, EGFR(d746-750/T790M) (Homo sapiens, UniProt P00533, DEL746-750/T790M)
T30 construct: purchased Carna Biosciences

[31] = target: T31, ROCK1 (Homo sapiens, UniProt Q13464)
T31 construct: purchased Carna Biosciences

[32] = target: T32, CGK2 (Homo sapiens, UniProt Q13237)
T32 construct: purchased Carna Biosciences

[33] = target: T33, EEF2K (Homo sapiens, UniProt O00418)
T33 construct: purchased Carna Biosciences

[34] = target: T34, p38γ (Homo sapiens, UniProt P53778)
T34 construct: purchased Carna Biosciences

[35] = target: T35, EGFR(α746-750) (Homo sapiens, UniProt P00533, DEL746-750)
T35 construct: purchased Carna Biosciences

[36] = target: T36, RET(Y791F) (Homo sapiens, UniProt P07949, Y791F)
T36 construct: purchased Carna Biosciences

[37] = target: T37, QIK (Homo sapiens, UniProt Q9H0K1)
T37 construct: purchased Carna Biosciences

[38] = target: T38, DYRK2 (Homo sapiens, UniProt Q92630)
T38 construct: purchased Carna Biosciences

[39] = target: T39, MRCKβ (Homo sapiens, UniProt Q9Y5S2)
T39 construct: purchased Carna Biosciences

[40] = target: T40, PKCβ2 (Homo sapiens, UniProt P05771)
T40 construct: purchased Carna Biosciences

[41] = target: T41, CK1y3 (Homo sapiens, UniProt Q9Y6M4)
T41 construct: purchased Carna Biosciences

[42] = target: T42, KIT(V654A) (Homo sapiens, UniProt P10721, V654A)
T42 construct: purchased Carna Biosciences

T1 sequence (O43781 whole entry): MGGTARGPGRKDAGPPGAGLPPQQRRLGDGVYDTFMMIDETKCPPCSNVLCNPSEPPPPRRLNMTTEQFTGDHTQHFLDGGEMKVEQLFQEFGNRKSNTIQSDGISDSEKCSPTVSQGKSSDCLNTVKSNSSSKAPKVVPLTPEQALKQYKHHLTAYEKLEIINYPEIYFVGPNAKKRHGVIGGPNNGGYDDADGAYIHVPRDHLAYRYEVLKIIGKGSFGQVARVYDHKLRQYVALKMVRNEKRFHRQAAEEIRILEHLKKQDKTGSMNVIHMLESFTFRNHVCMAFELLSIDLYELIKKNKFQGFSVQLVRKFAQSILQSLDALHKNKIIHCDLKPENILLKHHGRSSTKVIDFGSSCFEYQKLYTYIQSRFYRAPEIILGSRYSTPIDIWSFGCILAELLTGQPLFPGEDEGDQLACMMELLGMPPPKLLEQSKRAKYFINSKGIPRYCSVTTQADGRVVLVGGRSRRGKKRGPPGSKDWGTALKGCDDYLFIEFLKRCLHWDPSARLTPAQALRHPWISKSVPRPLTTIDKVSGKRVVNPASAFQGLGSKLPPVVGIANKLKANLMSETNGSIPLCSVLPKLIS
T24 sequence (Q13976 whole entry): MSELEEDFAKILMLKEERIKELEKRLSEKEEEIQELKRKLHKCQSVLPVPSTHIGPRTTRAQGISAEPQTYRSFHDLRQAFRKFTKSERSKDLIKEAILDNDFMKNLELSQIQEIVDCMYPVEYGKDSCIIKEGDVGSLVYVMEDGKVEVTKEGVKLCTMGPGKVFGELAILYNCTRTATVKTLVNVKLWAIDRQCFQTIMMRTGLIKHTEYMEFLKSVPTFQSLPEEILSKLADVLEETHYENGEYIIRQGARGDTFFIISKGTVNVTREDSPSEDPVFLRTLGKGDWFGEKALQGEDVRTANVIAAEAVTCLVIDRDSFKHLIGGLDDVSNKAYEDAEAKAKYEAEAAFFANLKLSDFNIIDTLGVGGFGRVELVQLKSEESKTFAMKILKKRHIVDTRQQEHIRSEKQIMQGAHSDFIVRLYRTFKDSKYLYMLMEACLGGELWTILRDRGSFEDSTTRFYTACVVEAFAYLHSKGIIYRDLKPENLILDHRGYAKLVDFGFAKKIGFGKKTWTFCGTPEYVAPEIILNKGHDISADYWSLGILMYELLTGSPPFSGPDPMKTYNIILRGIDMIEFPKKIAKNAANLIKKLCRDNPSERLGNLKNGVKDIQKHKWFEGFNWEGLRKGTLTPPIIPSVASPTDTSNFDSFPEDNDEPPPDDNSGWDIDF
T7 sequence (Q13043 whole entry): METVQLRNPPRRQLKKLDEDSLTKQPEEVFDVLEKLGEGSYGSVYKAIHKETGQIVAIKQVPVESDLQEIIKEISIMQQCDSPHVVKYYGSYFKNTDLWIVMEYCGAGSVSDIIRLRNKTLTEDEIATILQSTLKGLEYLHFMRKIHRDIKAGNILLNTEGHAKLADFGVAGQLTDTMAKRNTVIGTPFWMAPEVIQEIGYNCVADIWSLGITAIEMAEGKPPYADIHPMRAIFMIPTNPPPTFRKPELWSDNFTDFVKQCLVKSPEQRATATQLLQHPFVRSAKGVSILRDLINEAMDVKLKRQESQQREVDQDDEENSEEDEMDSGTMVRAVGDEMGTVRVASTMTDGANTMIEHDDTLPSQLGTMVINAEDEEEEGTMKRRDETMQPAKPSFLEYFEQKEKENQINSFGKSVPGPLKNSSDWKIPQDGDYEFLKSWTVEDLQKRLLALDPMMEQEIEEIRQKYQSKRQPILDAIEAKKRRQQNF
T27 sequence (O60285 whole entry): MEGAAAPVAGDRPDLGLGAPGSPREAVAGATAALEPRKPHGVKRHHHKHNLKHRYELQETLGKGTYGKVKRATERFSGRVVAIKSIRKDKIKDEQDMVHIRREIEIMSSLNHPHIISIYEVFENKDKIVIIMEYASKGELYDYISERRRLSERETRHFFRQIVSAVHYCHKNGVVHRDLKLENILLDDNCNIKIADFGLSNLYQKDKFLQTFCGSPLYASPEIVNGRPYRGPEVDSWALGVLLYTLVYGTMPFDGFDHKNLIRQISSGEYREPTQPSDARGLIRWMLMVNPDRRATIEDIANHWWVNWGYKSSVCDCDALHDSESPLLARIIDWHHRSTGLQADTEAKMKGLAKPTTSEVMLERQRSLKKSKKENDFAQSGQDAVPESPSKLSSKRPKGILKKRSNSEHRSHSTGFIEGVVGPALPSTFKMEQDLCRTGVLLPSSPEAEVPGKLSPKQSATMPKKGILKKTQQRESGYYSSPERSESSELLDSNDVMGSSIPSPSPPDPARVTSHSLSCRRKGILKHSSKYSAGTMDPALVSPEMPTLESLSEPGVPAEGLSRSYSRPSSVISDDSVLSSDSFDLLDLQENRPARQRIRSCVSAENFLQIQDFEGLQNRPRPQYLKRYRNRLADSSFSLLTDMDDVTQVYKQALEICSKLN
T9 sequence (P42680 whole entry): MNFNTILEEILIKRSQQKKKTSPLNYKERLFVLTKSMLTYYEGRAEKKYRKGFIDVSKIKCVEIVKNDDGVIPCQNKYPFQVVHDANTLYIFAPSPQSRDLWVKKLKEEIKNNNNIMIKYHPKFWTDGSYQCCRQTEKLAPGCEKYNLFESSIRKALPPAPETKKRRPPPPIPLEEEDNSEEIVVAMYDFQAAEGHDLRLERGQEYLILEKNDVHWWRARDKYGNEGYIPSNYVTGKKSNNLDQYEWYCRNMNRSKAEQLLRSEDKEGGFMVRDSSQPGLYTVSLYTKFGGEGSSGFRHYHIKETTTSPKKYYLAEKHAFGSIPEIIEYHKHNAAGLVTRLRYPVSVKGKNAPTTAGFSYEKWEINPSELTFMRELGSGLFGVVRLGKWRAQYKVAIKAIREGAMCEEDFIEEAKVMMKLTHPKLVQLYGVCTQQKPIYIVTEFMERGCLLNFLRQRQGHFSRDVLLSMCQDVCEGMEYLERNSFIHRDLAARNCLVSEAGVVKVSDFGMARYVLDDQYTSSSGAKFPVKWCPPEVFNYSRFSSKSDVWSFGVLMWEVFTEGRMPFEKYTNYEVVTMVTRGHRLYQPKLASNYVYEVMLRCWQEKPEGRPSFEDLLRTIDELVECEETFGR
T10 sequence (Q96PF2 whole entry): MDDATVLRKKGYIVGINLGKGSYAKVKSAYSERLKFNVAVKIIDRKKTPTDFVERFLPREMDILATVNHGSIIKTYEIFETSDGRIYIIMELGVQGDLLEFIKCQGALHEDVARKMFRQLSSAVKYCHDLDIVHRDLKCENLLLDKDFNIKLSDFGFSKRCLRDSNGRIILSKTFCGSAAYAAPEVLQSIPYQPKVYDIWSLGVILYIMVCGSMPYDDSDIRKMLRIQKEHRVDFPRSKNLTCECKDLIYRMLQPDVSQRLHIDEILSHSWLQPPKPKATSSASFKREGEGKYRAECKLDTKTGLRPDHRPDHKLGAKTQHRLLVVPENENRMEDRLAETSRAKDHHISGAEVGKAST
T36 sequence (P07949 29-1114 Y791F): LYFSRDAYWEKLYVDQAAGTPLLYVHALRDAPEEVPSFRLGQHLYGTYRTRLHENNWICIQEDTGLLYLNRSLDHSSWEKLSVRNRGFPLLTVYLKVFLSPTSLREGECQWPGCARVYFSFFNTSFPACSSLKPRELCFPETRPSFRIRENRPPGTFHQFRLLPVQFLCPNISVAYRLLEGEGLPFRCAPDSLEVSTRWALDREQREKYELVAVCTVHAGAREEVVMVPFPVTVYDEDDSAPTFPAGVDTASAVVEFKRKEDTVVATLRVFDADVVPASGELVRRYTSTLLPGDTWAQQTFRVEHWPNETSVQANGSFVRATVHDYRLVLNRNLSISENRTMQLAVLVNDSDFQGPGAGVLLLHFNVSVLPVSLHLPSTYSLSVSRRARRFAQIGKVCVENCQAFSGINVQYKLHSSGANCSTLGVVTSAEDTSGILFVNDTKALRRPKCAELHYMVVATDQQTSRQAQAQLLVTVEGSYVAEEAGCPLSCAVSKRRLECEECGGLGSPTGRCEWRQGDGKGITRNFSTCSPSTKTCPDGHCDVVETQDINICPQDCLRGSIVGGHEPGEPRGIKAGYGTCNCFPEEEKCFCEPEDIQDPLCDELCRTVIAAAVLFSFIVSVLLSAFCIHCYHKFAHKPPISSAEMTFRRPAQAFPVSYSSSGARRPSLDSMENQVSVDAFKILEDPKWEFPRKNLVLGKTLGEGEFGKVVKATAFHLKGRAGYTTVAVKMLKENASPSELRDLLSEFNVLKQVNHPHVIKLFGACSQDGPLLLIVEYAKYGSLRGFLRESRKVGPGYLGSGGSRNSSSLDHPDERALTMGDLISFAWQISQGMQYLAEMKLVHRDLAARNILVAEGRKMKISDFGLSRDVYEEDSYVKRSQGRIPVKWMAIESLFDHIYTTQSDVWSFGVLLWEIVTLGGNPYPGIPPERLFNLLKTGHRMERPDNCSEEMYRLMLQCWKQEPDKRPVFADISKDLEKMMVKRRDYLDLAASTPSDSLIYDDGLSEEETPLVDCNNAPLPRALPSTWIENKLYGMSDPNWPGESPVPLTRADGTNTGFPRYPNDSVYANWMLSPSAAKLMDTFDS
T11 sequence (O14965 whole entry): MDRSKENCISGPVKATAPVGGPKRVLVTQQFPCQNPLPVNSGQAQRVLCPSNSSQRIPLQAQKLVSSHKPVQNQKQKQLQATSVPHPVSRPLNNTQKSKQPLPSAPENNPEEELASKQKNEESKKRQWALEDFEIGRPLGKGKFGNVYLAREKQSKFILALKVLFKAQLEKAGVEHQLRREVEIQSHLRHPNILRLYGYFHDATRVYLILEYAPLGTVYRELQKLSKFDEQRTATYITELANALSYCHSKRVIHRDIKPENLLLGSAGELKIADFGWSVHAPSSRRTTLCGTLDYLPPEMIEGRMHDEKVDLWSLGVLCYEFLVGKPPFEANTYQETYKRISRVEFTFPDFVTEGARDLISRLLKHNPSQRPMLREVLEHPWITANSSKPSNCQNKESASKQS
T11 sequence (Q9ULW0 1-43 partner limits assumed): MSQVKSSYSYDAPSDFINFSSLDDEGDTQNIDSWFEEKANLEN

SMILES: C[C@@H]1CC[C@H]2C(C)(C)CCC[C@]2(C)c2c1oc1c(C=O)c(O)c(O)cc21 [LG-1, liphagal]
- inhibition at 10 µM [1]: 39.2%
- inhibition at 10 µM [2]: 17.4%
- inhibition at 10 µM [3]: 13.9%
- inhibition at 10 µM [4]: 85.6%
- inhibition at 10 µM [5]: -2.8%
- inhibition at 10 µM [6]: -1.1%
- inhibition at 10 µM [7]: 24.3%
- inhibition at 10 µM [8]: 18.8%
- inhibition at 10 µM [9]: -1.2%
- inhibition at 10 µM [10]: 21%
- inhibition at 10 µM [11]: 12.2%
- inhibition at 10 µM [12]: 0.4%
- inhibition at 10 µM [13]: -2.9%
- inhibition at 10 µM [14]: 12.3%
- inhibition at 10 µM [15]: -34.3%
- inhibition at 10 µM [16]: -97.8%
- inhibition at 10 µM [17]: 57.7%
- inhibition at 10 µM [18]: 15%
- inhibition at 10 µM [19]: -10.8%
- inhibition at 10 µM [20]: 6.5%
- inhibition at 10 µM [21]: 1.5%
- inhibition at 10 µM [22]: 14%
- inhibition at 10 µM [23]: 2.1%
- inhibition at 10 µM [24]: 6.1%
- inhibition at 10 µM [25]: 16.8%
- inhibition at 10 µM [26]: 36.4%
- inhibition at 10 µM [27]: 6%
- inhibition at 10 µM [28]: 13%
- inhibition at 10 µM [29]: 5%
- inhibition at 10 µM [30]: 2.5%
- inhibition at 10 µM [31]: 0.5%
- inhibition at 10 µM [32]: 7.3%
- inhibition at 10 µM [33]: 22.4%
- inhibition at 10 µM [34]: -5.6%
- inhibition at 10 µM [35]: -5.1%
- inhibition at 10 µM [36]: 9.9%
- inhibition at 10 µM [37]: 2.7%
- inhibition at 10 µM [38]: 18.9%
- inhibition at 10 µM [39]: -1.9%
- inhibition at 10 µM [40]: -13.2%
- inhibition at 10 µM [41]: 3%
- inhibition at 10 µM [42]: 22.3%

Source: patent publication US11691980B2, “Liphagal analog and multi-targeted kinase inhibitor containing liphagal or analog thereof” (TOHOKU UNIVERSITY, priority 2017, dated 2023)
